Test results as given in patent publication US20050065114A1, “Therapeutical treatment with oligo-beta- (1,3) -glucans, drugs used in said treatment” (priority 2003, published 2005).
Several values for one entry are separate records, joined by “and”; a condition that tells them apart may be missing. Identical values can stand only once.

Key:
Type in all cases: in vivo, Balb/c mice
[1] = test system: cells from peripheral blood (monocytes, granulocytes); assay: Phagocytosis of HEMA particles by cells from peripheral blood after intraperitoneal injection; settings: for % of phagocytosing granulocytes / % of phagocytosing monocytes: peripheral blood 24 hrs after i.p. injection
Description: A group of Balb/c mice (Jackson laboratory, Bar Harbor, ME, USA) has been injected intraperitoneally with either PBS (Control; Sigma, St. Louis, Mo., USA), Laminaritetraose or Laminaripentaose. 24 hrs later, mice were sacrified, peripheral blood from the orbital plexus was collected into heparine (5 IU/ml) (Sigma).
After counting, a test of phagocytosis of HEMA particles (synthetic microspheres prepared from 2-hydroxyethylmethacrylate copolymer) was performed as described in: Rembaum et al., 1976, Vetvicka et al. 1982, Bilej et al., 1989.
0.1 ml of heparinized fresh blood was added to 0.05 ml of diluted HEMA particles (5×10^8/ml) and incubated for 60 minutes at 37° C. with occasional gentle agitation.
After the end of incubation, the cell suspension was smeared over microscope slides. Smears were evaluated under the optical microscope after Accustain (modified Wright stain, Sigma) staining.
Cells with at least three engulfed particles were considered to be positive.

[2] = test system: peripheral blood cells (monocytes, lymphocytes, granulocytes); assay: Differential count in blood; settings: for % of granulocytes / % of lymphocytes / % of monocytes: peripheral blood 24 hrs after i.p. injection
Description: Using the same experimental groups as described above in Example 3, two extra microscopic slides from each experimental sample were prepared. After Accustain (modified Wright stain, Sigma) staining, the slides were evaluated using the optical microscope for presence of individual types of cells, i.e. monocytes, lymphocytes and granulocytes.

[3] = test system: TNF-alpha; assay: Cytokine level in peripheral blood: TNF-alpha in serum by OptEIA Mouse TNF-alpha ELISA; settings: for TNF-alpha level (Table 6, same experiments as Table 5): 250 μg/mouse, unit not given in Table 6 (Table 5: pg/ml)
Description: Balb/c mice were intraperitoneally injected with 50 μg of Laminaritetraose, Laminaripentaose, Laminarin or Lentinan (purchased from NIH, Bethesda, Md., USA) in PBS.
After various time intervals (30, 60 and 90 minutes, respectively), after the injection of Laminaritetraose, Laminaripentaose, Laminarin, Lentinan only, the mice were killed and blood was collected in Eppendorf tubes.
Subsequently, the serum of the collected blood was separated, collected and stored at −80° C. for no more than 1 week.
The level of TNF-alpha in the serum samples was evaluated using a commercial kit marketed as OptEIA Mouse TNF-alpha (Mono/Mono) Set by the Company Pharmingen, San Diego, Calif., USA); the manufacturer's instructions were followed.
In connection with the experiments carried out by Applicants, Balb/c mice were intraperitoneally injected with various doses (50, 100, and 250 μg) of Soluble laminarin and Lentinan (from NIH, Bethesda, Md., USA) in PBS.
Control mice were treated with PBS only. […]
Subsequently, the serum was prepared, collected and stored at −80° C. for no more than 1 week.
The level of TNF-alpha in serum samples was evaluated using a commercial kit marketed as OptEIA Mouse TNF-alpha (Mono/Mono) Set by the Company Pharmingen, San Diego, Calif., USA); the manufacturer's instructions were followed.
In that respect, The wells of 96-well plates were coated with 0.1 ml/well of capture antibody (provided in the above kit) diluted in coating buffer (also provided in the above kit); the expression “capture antibody” designates first antibody used for coating of wells; this antibody captures the tested cytokines from the solution; in this assay it was anti-mouse-TNF-alpha monoclonal antibody.
The plates were sealed and incubated overnight at 4° C.
Individual wells were emptied by aspiration and washed 3 times with over 300 el/well of wash buffer (also provided in the kit).
Reaction was blocked with 200 el/well of assay dilutant diluent (also provided in the kit) and by incubation for 60 minutes at room temperature.
Again, individual wells were emptied by aspiration and washed 3 times with over 300 el/well of the same wash buffer.
Standards (also provided in the kit) and samples of serum were diluted in assay diluent (also provided in the kit) and pipetted (100 μl/well) in appropriate wells; as far as the dissolution rate is concerned standards (part of the kit) were diluted according to the instructions into following concentrations: 1000 pg/ml, 500 pg/ml, 250, 125, 62.5, 31.3, and 15.6 pg/ml.
The plates were sealed and incubated for 60 minutes at room temperature. Individual wells were aspirated and washed 3 times with over 300 μl/well of the same wash buffer. A quantity of 100 μl/well of a working detector (antibody-avidin-HRP conjugate also provided in the kit) was added into each well.
The plates were sealed with plastic foils and incubated for 60 minutes at room temperature. Individual wells were emptied by aspiration and washed 3 times with over 300 μl/well of same wash buffer.
A quantity of 100 μl/well of substrate solution (also provided in the kit) was added to each well and the plates were incubated for 30 minutes in the dark at room temperature; “substrate solution” is formed by mixing a substrate reagent A containing hydrogen peroxide and Substrate reagent B containing 3,3′,5,5′-tetramethylbenzidine in organic solvent; when mixed together, the reagent reacts with peroxidase-labeled conjugates to develop a blue color.
A quantity of 50 μl/well of stop solution provided in the kit and adapted to stop the reaction was added to each well and the optical density was determined using a STL ELISA reader (marketed by Tecan U.S., Research Triangle Park, N.C.) at 450 nm with a correction at 570 nm.
The concentration of TNF-alpha, in pg/ml, in the blood of the mice treated as hereabove disclosed has been determined at the following moments: 30, 60 and 90 minutes after the injection of Laminaritetraose, Laminaripentaose, Lentinan and control. […]

[4] = test system: peritoneal macrophages; assay: Phagocytosis of HEMA particles by cells from peritoneal cavity after intraperitoneal injection; settings: for % of phagocytosing macrophages: peritoneal cells 24 hrs after i.p. injection
Description: A group of Balb/c mice (Jackson laboratory, Bar Harbor, Me., USA) has been injected intraperitoneally with either PBS (control), Laminaritetraose or Laminaripentaose. 24 hrs later, mice were sacrificed, peritoneal cells were collected into Hanks medium (Sigma).
After counting the cells in hemocytometer, the peritoneal cells were diluted to lxlO7 cells in RPMI 1640 medium (Sigma) with 5% fetal calf serum (Hyclone, Logan, Utah, USA).
2×10^6 cells in 0.2 ml of RPMI 1640 medium supplemented with 5% fetal calf serum were mixed with the same volume of HEMA particles (5×10^8/ml).
The suspension was incubated for 60 minutes at 37° C. with occasional agitation. Incubation was terminated by centrifugation (150 g for 5 minutes) and the pellet was resuspended.
Macrophages with ingested particles were scored under the optical microscope in smears after Accustain (modified Wright stain, Sigma) staining.
Cells with six or more engulfed particles were considered to be positive.

[5] = test system: peritoneal cells (macrophages, lymphocytes, mast cells); assay: Differential count in peritoneal cells; settings: for % of lymphocytes / % of macrophages / % of mast cells: peritoneal cells 24 hrs after i.p. injection
Description: Using the same experimental groups as described above in Example 4, two extra microscopic slides from each experimental sample were prepared. After Accustain (modified Wright stain, Sigma) staining, the slides were evaluated using the optical microscope for presence of individual types of cells, i.e. macrophages, lymphocytes and mast cells.

[6] = individual values, cells with at least three engulfed HEMA particles positive
[7] = mean, at least three engulfed HEMA particles

In the case of `OC[C@H]1O[C@@H](O[C@@H]2[C@@H](O)[C@H](O[C@@H]3[C@@H](O)[C@H](O[C@@H]4[C@@H](O)[C@H](O)O[C@H](CO)[C@H]4O)O[C@H](CO)[C@H]3O)O[C@H](CO)[C@H]2O)[C@H](O)[C@@H](O)[C@@H]1O` [Laminaritetraose, β-D-glucopyranosyl-(1→3)-β-D-glucopyranosyl-(1→3)-β-D-glucopyranosyl-(1→3)-β-D-glucopyranose], the “% of phagocytosing granulocytes” value [1, 6] is reported as 28.6% and 32.3% and 32.6%, the “% of phagocytosing monocytes” value [1, 6] is reported as 36.8% and 30.9% and 39.8% and the “% of phagocytosing granulocytes” value [1, 7] is reported as 31.2%. For the same compound, the “% of phagocytosing monocytes” value [1, 7] was 35.8%, the “Effect on phagocytosis in monocytes and granulocytes (in words)” value ([1]; peripheral blood, versus PBS control) was “strongly stimulate phagocytosis” and the “% of granulocytes” value ([2]; individual values) was 33.2% and 34.4% and 30.1%. For the same compound, the “% of lymphocytes” value ([2]; individual values) was 57.7% and 55.6% and 61.4%, the “% of monocytes” value ([2]; individual values) was 9.1% and 10.0% and 8.5% and the “% of granulocytes” value ([2]; mean) was 32.6%. The “% of lymphocytes” value ([2]; mean) was 58.2%, the “% of monocytes” value ([2]; mean) was 9.2% and the “Effect on number of granulocytes in the peripheral blood (in words)” value ([2]; versus PBS control) was “increase the number of granulocytes”. For the same compound, the “Concentration of TNF alpha in blood of treated mice” value (from here on “Concentration of TNF alpha”) ([3]; 50 μg/mouse i.p., 30 min) was 55.7 pg/mL, the “Concentration of TNF alpha” value ([3]; 50 μg/mouse i.p., 60 min) was 103.0 pg/mL and the “Concentration of TNF alpha” value ([3]; 50 μg/mouse i.p., 90 min) was 35.3 pg/mL. The “Concentration of TNF alpha” value ([3]; 100 μg/mouse i.p., 30 min) was 39.0 pg/mL, the “Concentration of TNF alpha” value ([3]; 100 μg/mouse i.p., 60 min) was 18.4 pg/mL and the “Concentration of TNF alpha” value ([3]; 100 μg/mouse i.p., 90 min) was 13.6 pg/mL. For the same compound, the “Concentration of TNF alpha” value ([3]; 250 μg/mouse i.p., 30 min) was 27.3 pg/mL, the “Concentration of TNF alpha” value ([3]; 250 μg/mouse i.p., 60 min) was 152.3 pg/mL and the “Concentration of TNF alpha” value ([3]; 250 μg/mouse i.p., 90 min) was 11.1 pg/mL. The TNF-alpha level (Table 6, same experiments as Table 5) ([3]; 24 hours) was 28.1 pg/mL, the TNF-alpha level (Table 6, same experiments as Table 5) ([3]; 48 hours) was 35.9 pg/mL and the “Relative activity on TNF-alpha level (in words)” value ([3]; comparison between substances, Table 6, 24 and 48 h) was “more active than yest derived glucan (Lentinan)”. For the same compound, the “Increase of TNF-alpha secretion compared with Lentinan (in words)” value ([3]; low doses, indirect activation of macrophages and cytotoxic T lymphocytes) was “significantly higher”, the “% of phagocytosing macrophages” value ([4]; individual values, cells with six or more engulfed HEMA particles positive) was 46.2% and 51.5% and 44.5% and the “% of phagocytosing macrophages” value ([4]; mean, six or more engulfed HEMA particles) was 47.4%. The “Effect on phagocytosis of peritoneal macrophages (in words)” value ([4]; peritoneal cells, versus PBS control) was “strongly stimulate phagocytosis”, the “% of lymphocytes” value ([5]; individual values) was 45.9% and 50.4% and 44.1% and the “% of macrophages” value ([5]; individual values) was 41.2% and 43.6% and 46.8%. For the same compound, the “% of mast cells” value ([5]; individual values) was 12.9% and 6.0% and 9.1%, the “% of lymphocytes” value ([5]; mean) was 46.8% and the “% of macrophages” value ([5]; mean) was 43.9%. The “% of mast cells” value ([5]; mean) was 9.3% and the “Effect on migration of macrophage into the peritoneal cavity (in words)” value ([5]; versus PBS control) was “stimulate the migration of macrophage”.
